Literature values, collected in patent US20100267730A1, “NOVEL COMPOUNDS” (priority 2008, published 2010).

Columns and labels:
[1] = system: orexin receptors; details: central administration at the onset of the normal sleep period, rat sleep/EEG
[2] = system: freely-feeding rats; details: central administration, 4 hour time period

## orexin-A: ligand (agonist) of the orexin receptors; human Orexin-A amino acid sequence SEQ ID NO: 1 (EPLPDCCRQKTCSCRLYELLHGAGNHAAGILTL; Homo sapien)
[1]
  effect on arousal: dose-related increase in arousal
[2]
  increase in food intake over control rats receiving vehicle: approximately four-fold
